Measurements published in patent US10421973B2, “Chemically inducible cucumber mosaic virus protein expression system” (THE REGENTS OF THE UNIVERSITY OF CALIFORNIA, priority 2006, dated 2019).
Values joined by “and” are separate entries in the source; they are usually repeats but may differ in a detail not shown here. Equal values may be shown once. “Also recorded” adds a separate entry of the source. Read-outs that look alike come from different tables or passages of the source. Where a SMILES comes first, the peptide text is derived from it. Bridges are numbered along the chain shown (N, C = ends). [ ]: non-standard residue; d: D form. The star is where a group is joined. Ileψ(thiazoline)Cys = CC[C@H](C)[C@H](N)C1=N[C@H](C(=O)*)CS1; dOrn = NCCC[C@@H](N)C(=O)O

Experiments:
[1] = system: proteases in the cell cultured medium; experiment: Effect of protease inhibitors and additives on human AAT degradation in cell-free CMViva conditioned medium; assay type: biochemical, Nicotiana benthamiana; details: for effect of protease inhibitor on human AAT degradation: 10 mM in 7 day old cell-free CMViva conditioned medium; for effect of medium additive on stabilizing functional human AAT: cell-free conditioned medium, data not shown
Procedure: (§1) For the investigation of human AAT stability in plant cell cultures, human AAT was added to the cell-free conditioned medium to a final concentration of 2 mg/L and distributed into 6-well-plates. The cell-free conditioned medium was prepared by centrifuging and filtering (through a 0.22 μm filter) the plant cells from 7 day old CMViva cell cultures (pH 5.1). Various protease inhibitors including 2-mercaptoethylamine-HCl (aminopeptidase inhibitor), AEBSF (serine and cysteine proteases inhibitor), benzamidine-HCl (serine protease inhibitor), and EDTA (a metal ion chelator and metalloproteinase inhibitor) were added to the conditioned medium to a final concentration of 10 mM to assess their ability to retard the degradation of human AAT. In another treatment, the conditioned medium was also heated (in boiling water for 30 minutes) or the medium pH was adjusted (from original pH 5.1 to 6.4˜6.6) prior to the addition of human AAT to investigate the human AAT stability. The 6-well-plates containing human AAT in various conditioned medium (4 mL/well) were incubated on an orbital shaker at 140 rpm and 25[…] under ambient light. Samples were taken daily and stored at −80° for further ELISA, western blotting and band shift analysis.

[2] = system: transgenic plant cell cultures; experiment: Effect of stabilizing agents and protease inhibitors on rAAT production in transgenic plant cell cultures; assay type: cell-based, Nicotiana benthamiana
Procedure: The effect of stabilizing agents (bacitracin, PVP, BSA, Pluronic F-68, and mannitol) and protease inhibitors (2-mercaptoethylamine-HCl, AEBSF, benzamidine-HCl and EDTA) on the rAAT production in transgenic plant cell cultures was also evaluated.

[3] = Procedure: as §1
N. benthamiana leaves = experiment: Induction method study, total rAAT ELISA in intact or detached N. benthamiana leaves (CMViva + p19); assay type: in vivo, Nicotiana benthamiana
Procedure: (§2) Non-transgenic/wildtype N. benthamiana seedlings were grown from seed in soil-filled 10-cm pots. Seedlings were transplanted to individual 10-cm pots until plants were 10 to 15 cm in height, at which time plants were ready for infiltration. All plants were grown in a greenhouse with a 16-hour photoperiod and a temperature range of 18° C. (nighttime low) to 30° C. (daytime high). To prepare for evaluation of protein expression in detached leaves, plant leaves were cut at the petiole and stored dry in unsealed plastic bags for one hour before infiltration to simulate a situation where plants would be harvested from a field and transported to a facility for infiltration.
(§3) A. tumefaciens cells containing the appropriate plasmids were grown for 24 hours in 2 mL of Luria-Bertani (LB) broth containing appropriate selection antibiotics. Approximately 0.5 mL was then transferred to 25 mL of LB broth supplemented with 10 μL of 100 mM acetosyringone (3′, 5′-dimethoxy-4′-hydroxyacetophenone) (Aldrich Chemicals, Milwaukee, Wis.) and 0.5 ml of 1 M 2-(4-morpholino) ethanesulfonic acid (MES) buffer (pH 5.6), and grown overnight at 28° C. with shaking until the cell density (optical density, OD600) reached 1.0 absorbance units. Cells were harvested by centrifugation at 2600 g, resuspended in 10 mL of sterile de-ionized water, and the cell density was adjusted to 1.0 absorbance units. Five milliliters of the A. tumefaciens cell suspension for CMViva was mixed with 5 mL of A. tumefaciens cells containing the p35S:p19 plasmid, and then supplemented with magnesium chloride to reach a final concentration of 10 mM and acetosyringone to 150 µM, and incubated at room temperature for five hours. Bacterial suspensions were then pressure infiltrated onto the abaxial side of either intact or detached N. benthamiana leaves using a 3-mL sterile syringe without a needle at three to four points to sufficiently cover the entire leaf (approximately 1 mL of bacterial suspension per 0.5 g fresh weight of tissue). No A. tumefaciens solution was applied to plants selected as healthy control plants.
(§4) Intact plants that had been infiltrated were grown in the greenhouse for the duration of the experiment. Leaves that had been detached were stored in a humidity chamber following infiltration to maintain the health of the plant material. The humidity chamber was prepared by soaking 400 g of Perlite soil additive (E.B. Stone) in 1.5 L of de-ionized water. Excess water was decanted and the saturated Perlite was packed to form a 3-cm thick bed on the bottom of an 11.4 L rectangular Tupperware container. Plant leaves were then placed 7 cm above the Perlite bed on top of racks, and the chamber was then sealed and placed in the dark at 21° C. The humidity chamber was prepared five hours before infiltration to ensure a humid environment upon introduction of the plant leaves.
(§5) Twelve hours after infiltration, an induction solution composed of 50 μM 17-β-estradiol (Sigma Inc., St. Louis, Mo.) in 0.05% Tween 20 was applied to all infiltrated N. benthamiana leaves using either cotton tipped applicators to both sides of the leaves or a 3-mL sterile syringe without a needle pressure injected onto the abaxial side of the leaves. To evaluate the effect of multiple inducer applications, the induction solution was applied to half of the total number of infiltrated leaves in the same manner (directly after sampling) at 2-day (48±1 h) increments after the initial induction. No inducer solution was applied at any time to the healthy control plants.
(§6) Plant leaves were sampled on the infiltrated/induced areas 2 days (48±1 h) post-induction (60±1 h post-infiltration) by collecting two 7-mm diameter discs at various locations on each leaf and combining the discs to approximate an average leaf sample. Three leaves from different plants were sampled for analysis of intact plant leaves and four leaves were used for analysis of detached plant leaves. […]

[4] = system: porcine pancreatic elastase (PPE); experiment: Induction method study, functional rAAT ELISA in intact or detached N. benthamiana leaves (CMViva + p19); assay type: biochemical
Procedure: as §2, §3, §4, §5, §6

[5] = transgenic plant cell cultures, data not shown
[6] = 5 day incubation, fresh sterile KCMS medium, pH 5.8
[7] = detached leaves, single pressure injection
[8] = intact leaves, single pressure injection
[9] = intact leaves, single topical application, four days after induction

Cl.NCCS [2-mercaptoethylamine-HCl]
effect of protease inhibitor on human AAT degradation [1]: slightly inhibit human AAT degradation
effect on total and functional rAAT production [2, 5]: no significant improvement

NCCc1ccc(S(=O)(=O)F)cc1 [AEBSF]
effect of protease inhibitor on human AAT degradation [1]: highest ability to stabilize functional human AAT levels; also recorded: slightly inhibit human AAT degradation
effect on total and functional rAAT production [2, 5]: no significant improvement

O=C(O)CN(CCN(CC(=O)O)CC(=O)O)CC(=O)O [EDTA]
effect on total and functional rAAT production [2]: no significant improvement

CC[C@H](C)[C@H](N)C1=N[C@H](C(=O)N[C@@H](CC(C)C)C(=O)N[C@H](CCC(=O)O)C(=O)N[C@H](C(=O)N[C@H]2CCCCNC(=O)[C@H](CC(N)=O)NC(=O)[C@@H](CC(=O)O)NC(=O)[C@H](Cc3cnc[nH]3)NC(=O)[C@@H](Cc3ccccc3)NC(=O)[C@H]([C@@H](C)CC)NC(=O)[C@@H](CCCN)NC2=O)[C@@H](C)CC)CS1 [bacitracin] ({Ileψ(thiazoline)Cys}-L[dE]IK[dOrn]I[dF]H[dD]N; lactam 4-C)
effect of medium additive on stabilizing functional human AAT [1]: did not show significant effect
effect on total and functional rAAT production [2, 5]: no significant improvement

Cl.N=C(N)c1ccccc1 [benzamidine-HCl]
effect on total and functional rAAT production [2, 5]: no significant improvement

OC[C@@H](O)[C@@H](O)[C@H](O)[C@H](O)CO [mannitol]
effect of medium additive on stabilizing functional human AAT [1]: did not show significant effect
effect on total and functional rAAT production [2, 5]: no significant improvement

human AAT: commercially available human AAT (Calbiochem) used as standard and spiked into media
decline of total human AAT ([3]; 5 day incubation, 7 day old cell-free CMViva culture medium, pH about 5.0): 60%
decline of functional human AAT [3, 6]: ~50%
decline of total human AAT [3, 6]: about 25%
decline of total human AAT ([3]; 5 day period, CMViva culture medium adjusted to pH 6.4): about 25%
functionality of human AAT ([3]; 11 day-old cell-free CMViva medium adjusted to pH 4-5): accelerates the loss of functionality
functionality of human AAT ([3]; 11 day-old cell-free CMViva medium adjusted to pH 7-8): maintains the functionality
functional human AAT as % of the initial concentration ([3]; after 5 days, heated CMViva culture medium): 70%
functional human AAT level ([3]; within 2 days, 7 day old cell-free CMViva culture medium, pH about 5.0): negligible

rAAT: recombinant α1-antitrypsin, a human blood protein, produced in N. benthamiana
maximum total rAAT (N. benthamiana leaves; detached leaves, multiple topical applications): 3.5±0.15 % of TSP
total rAAT (N. benthamiana leaves; [7]): 2.4±0.18 % of TSP
maximum total rAAT (N. benthamiana leaves; detached leaves, single topical application): 2.5±0.08 % of TSP
maximum total rAAT (N. benthamiana leaves; intact leaves, multiple pressure injections, 6 days after induction): 5.8±0.46 % of TSP
increase of total rAAT, multiple compared to single treatment (N. benthamiana leaves; intact leaves, pressure injection): 57%
total rAAT (N. benthamiana leaves; [8]): 3.7±0.31 % of TSP
total rAAT (N. benthamiana leaves; [9]): 1.4±0.17 % of TSP
maximum total rAAT (N. benthamiana leaves; intact leaves, single topical application, six days after induction): 1.9±0.15 % of TSP
increase of total rAAT, multiple compared to single treatment (N. benthamiana leaves; intact leaves, topical application): 120%
more total rAAT, single pressure injection compared to single topical application (N. benthamiana leaves; intact plants): 95%
maximum total rAAT in detached leaves above that in intact leaves (N. benthamiana leaves; single topical application): 0.6 % of TSP
functional rAAT higher with single pressure injection than single topical application ([4]; detached leaves): 80%
increase of maximum functional rAAT, inducer applied topically every two days ([4]; detached leaves): 1.8 fold
maximum percentage of functional rAAT to total rAAT ([4]; detached leaves, injection method, two days after induction): 85-87%
functional rAAT ([4]; detached leaves, multiple topical applications, four days post induction): 1.3±0.05 % of TSP
functional rAAT [4, 7]: 1.3±0.06 % of TSP
functional rAAT ([4]; detached leaves, single topical application, four days post induction): 0.71±0.04 % of TSP
maximum percentage of functional rAAT to total rAAT ([4]; detached leaves, topical application, two days after induction): 55-65%
increase of maximum functional rAAT, multiple pressure injections compared to single topical application ([4]; intact leaves): up to 3 fold
percentage of total rAAT that is functional ([4]; intact leaves, eighth day after induction, any of the treatments): less than 15%
maximum functional rAAT ([4]; intact leaves, multiple pressure injections): 2.4±0.09 % of TSP
maximum functional rAAT ([4]; intact leaves, multiple topical applications): 1.6±0.08 % of TSP
percentage of total rAAT that is functional ([4]; intact leaves, pressure injection, two days after induction): 83-90% and > 85%
maximum functional rAAT [4, 8]: 1.8±0.09 % of TSP
maximum functional rAAT [4, 9]: 0.80±0.04 % of TSP
functional rAAT still present as % of the maximum level ([4]; intact leaves, six days after induction, single induction treatment): less than 40%
more functional rAAT, single pressure injection compared to single topical application ([4]; intact plants): 125%
functional rAAT in detached leaves less than in intact leaves ([4]; multiple topical applications, four days post induction): 0.3 % of TSP
functional rAAT in detached leaves less than in intact leaves ([4]; single topical application, four days post induction): 0.09 % of TSP
